Test results from patent publication US20130225575A1, “METHODS FOR TREATING NEUROLOGICAL CONDITIONS” (AFRAXIS, INC., priority 2010, published 2013).

Legend:
Type in all cases: biochemical
PAK3 = PAK3 (Homo sapiens, UniProt O75914); assay: Z'Lyte fluorescence-based (FRET) kinase assay, PAK3; settings: ATP at Km apparent (100 μM ATP); 1 hr room temperature
Procedure: (§1) A fluorescence-based assay format is used to determine […] values of test compounds in vitro. Purified PAK kinase is incubated with ATP, and a test compound at various concentrations and a substrate peptide containing two fluorophores. In a second step, the reaction mix is incubated with a site-specific protease that cleaves non-phosphorylated but not phosphorylated substrate peptide, disrupting the FRET signal generated by the two fluorophores in the cleaved peptide (Z'Lyte™ Kinase assay platform; Life Technologies).
(§2) Reagents: 50 mM HEPES, pH 7.5; 0.01% BRIJ-35; 10 mM MgCl2; 1 mM EGTA, 2 uM substrate peptide Ser/Thr20 (proprietary Life Technologies Sequence), PAK enzyme [2.42-30.8 ng for PAK1, 0.29-6 ng for PAK2, 1.5-20 ng for PAK3 and 0.1-0.86 ng for PAK4; actual enzyme amounts depend on lot activity of the enzyme preparation]
(§3) Test compounds are dissolved in DMSO at various concentrations; the final DMSO concentration in the assay reaction is 1%.
(§4) ATP concentration at Km apparent is used in the assay [50 ? M ATP for PAK1 assay, 75 ? M ATP for PAK2 assay, 100 μM ATP for PAK3 assay, 5 μM ATP for PAK4 assay] in a total assay volume of 10 μl. […]
(§5) Plates are analyzed in a standard fluorescence plate reader (Tecan or equivalent) using an excitation wavelength of 400 nm and emission wavelengths of 445 nm and 520 nm. Inhibition of kinase reaction is determined by […]

PAK1 = molecular target: T1, PAK1 (Homo sapiens, UniProt Q13153); assay: Z'Lyte fluorescence-based (FRET) kinase assay, PAK1; settings: ATP at Km apparent; 1 hr room temperature
T1 construct: Purified PAK kinase is incubated with ATP
Procedure: as §1, §2, §3, §4, §5

PAK2 = PAK2 (Homo sapiens, UniProt Q13177); assay: Z'Lyte fluorescence-based (FRET) kinase assay, PAK2; settings: ATP at Km apparent; 1 hr room temperature
Procedure: as §1, §2, §3, §4, §5

PAK4 = molecular target: T2, PAK4 (Homo sapiens, UniProt O96013); assay: Z'Lyte fluorescence-based (FRET) kinase assay, PAK4; settings: ATP at Km apparent (5 μM ATP); 1 hr room temperature
T2 construct: Purified PAK kinase is incubated with ATP
Procedure: as §1, §2, §3, §4, §5

Measured: IC50

T2 sequence (O96013 whole entry): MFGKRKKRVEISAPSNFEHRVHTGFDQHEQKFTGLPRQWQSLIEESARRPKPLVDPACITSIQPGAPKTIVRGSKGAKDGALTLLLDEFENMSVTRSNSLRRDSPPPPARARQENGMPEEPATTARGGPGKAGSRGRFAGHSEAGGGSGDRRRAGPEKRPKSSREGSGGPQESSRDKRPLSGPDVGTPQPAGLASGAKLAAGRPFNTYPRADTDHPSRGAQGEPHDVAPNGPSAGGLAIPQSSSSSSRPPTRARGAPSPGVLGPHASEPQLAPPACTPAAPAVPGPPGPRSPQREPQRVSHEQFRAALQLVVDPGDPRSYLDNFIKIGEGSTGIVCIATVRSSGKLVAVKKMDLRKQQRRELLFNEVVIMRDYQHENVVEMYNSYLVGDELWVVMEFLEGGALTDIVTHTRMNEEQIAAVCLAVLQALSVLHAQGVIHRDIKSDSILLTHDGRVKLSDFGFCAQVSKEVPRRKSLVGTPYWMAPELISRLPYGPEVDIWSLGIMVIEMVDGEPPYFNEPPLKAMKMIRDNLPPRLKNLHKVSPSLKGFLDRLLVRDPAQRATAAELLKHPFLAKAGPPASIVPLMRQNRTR
T1 sequence (Q13153 whole entry): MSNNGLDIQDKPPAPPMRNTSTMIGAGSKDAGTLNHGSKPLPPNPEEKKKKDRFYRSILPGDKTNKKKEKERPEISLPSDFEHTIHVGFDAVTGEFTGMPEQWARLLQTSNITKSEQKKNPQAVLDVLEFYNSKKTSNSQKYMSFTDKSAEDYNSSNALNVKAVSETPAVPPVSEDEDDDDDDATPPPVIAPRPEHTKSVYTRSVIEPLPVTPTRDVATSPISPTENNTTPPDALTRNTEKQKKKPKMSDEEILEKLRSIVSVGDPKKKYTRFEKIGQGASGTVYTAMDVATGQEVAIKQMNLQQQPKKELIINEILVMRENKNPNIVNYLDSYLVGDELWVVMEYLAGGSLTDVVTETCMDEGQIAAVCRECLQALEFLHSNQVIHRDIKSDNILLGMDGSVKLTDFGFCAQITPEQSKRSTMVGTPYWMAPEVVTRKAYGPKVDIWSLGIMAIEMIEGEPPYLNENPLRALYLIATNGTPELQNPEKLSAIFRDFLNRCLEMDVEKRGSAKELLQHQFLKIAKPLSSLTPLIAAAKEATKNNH
Chain of PAK2 (Q13177 whole entry): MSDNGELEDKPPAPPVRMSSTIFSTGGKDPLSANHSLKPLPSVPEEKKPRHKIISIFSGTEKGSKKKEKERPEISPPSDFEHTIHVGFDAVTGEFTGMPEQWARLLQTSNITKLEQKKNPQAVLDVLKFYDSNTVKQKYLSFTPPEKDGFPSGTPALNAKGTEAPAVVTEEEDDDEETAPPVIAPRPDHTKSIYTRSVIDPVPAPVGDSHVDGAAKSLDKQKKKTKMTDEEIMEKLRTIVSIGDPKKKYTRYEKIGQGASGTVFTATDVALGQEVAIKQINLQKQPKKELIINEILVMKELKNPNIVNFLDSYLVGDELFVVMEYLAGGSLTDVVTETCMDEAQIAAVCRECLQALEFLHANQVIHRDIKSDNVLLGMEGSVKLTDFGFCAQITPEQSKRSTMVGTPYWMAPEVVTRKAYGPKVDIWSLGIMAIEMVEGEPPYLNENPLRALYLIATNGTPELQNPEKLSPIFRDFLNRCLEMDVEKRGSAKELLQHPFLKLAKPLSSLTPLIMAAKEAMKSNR
Chain of PAK3 (O75914 whole entry): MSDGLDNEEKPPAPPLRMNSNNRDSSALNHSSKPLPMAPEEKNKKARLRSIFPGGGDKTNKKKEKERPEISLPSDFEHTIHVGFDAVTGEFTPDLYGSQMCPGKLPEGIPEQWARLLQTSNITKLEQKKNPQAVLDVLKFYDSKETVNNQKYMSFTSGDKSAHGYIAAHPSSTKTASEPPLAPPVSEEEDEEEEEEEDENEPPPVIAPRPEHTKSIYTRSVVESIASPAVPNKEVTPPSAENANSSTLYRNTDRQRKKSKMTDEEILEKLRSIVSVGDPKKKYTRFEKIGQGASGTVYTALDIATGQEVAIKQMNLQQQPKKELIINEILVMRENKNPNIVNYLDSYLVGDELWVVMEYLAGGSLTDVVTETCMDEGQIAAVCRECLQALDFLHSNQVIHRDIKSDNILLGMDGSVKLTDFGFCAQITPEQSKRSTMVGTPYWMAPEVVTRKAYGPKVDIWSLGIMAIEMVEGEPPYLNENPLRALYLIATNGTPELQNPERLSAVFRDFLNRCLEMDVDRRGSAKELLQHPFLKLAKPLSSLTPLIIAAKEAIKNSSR

CN1CCN(c2ccc(Nc3ncc4ccc(=O)n(Cc5c(O)cccc5F)c4n3)cc2)CC1 [compound 105]
< 1000 nM: PAK3 | PAK1 | PAK2 | PAK4

CN1CCN(c2ccc(Nc3ncc4ccc(=O)n(Cc5c(O)cccc5Br)c4n3)cc2)CC1 [compound 123]
< 1000 nM: PAK3 | PAK1 | PAK2 | PAK4
